The text below walks through data of patent publication US10143681B2, “Factor XIa inhibitors” (MERCK SHARP & DOHME CORP., priority 2016, dated 2018).

pIC50: −log10 of the molar value.

Broadly, the pIC50 is −log10 of the IC50, conventionally taken in molar units.

In the assay the target is human Factor XIa (Homo sapiens (Human), UniProt P03951). Briefly: Factor XIa Assay. As to conditions: for inhibition at 1 µM: @ 1000 nM compound, read-out: FXIa % Inh. @ 1000 nM; for pIC50: human Factor XIa 0.04 nM, 30 min pre-incubation at 25° C., substrate GPR-AFC, read-out: FXIa IC50. In kind it is biochemical. How it is done:
The effectiveness of a compound of the present invention as an inhibitor of Coagulation Factor XIa can be determined using a relevant purified serine protease, and an appropriate synthetic substrate. The rate of hydrolysis of the chromogenic or fluorogenic substrate by the relevant serine protease was measured both in the absence and presence of compounds of the present invention. Assays were conducted at room temperature or at 37° C. […] A decrease in the rate of fluorescence change in the presence of inhibitor is indicative of enzyme inhibition. Such methods are known to one skilled in the art. The results of this assay are expressed as the half-maximal inhibitory concentrations (IC50), or the inhibitory constant, Ki.
Compounds were pre-incubated for 30 minutes at 25° C. with human (0.04 nM) Factor XIa in 50 mM HEPES buffer with 150 mM sodium chloride, 5 mM calcium chloride, 0.1% PEG 8000, pH 7.4. Factor XIa enzymatic activity was determined by addition of the substrate glycine-proline-arginine-7-amido-4-trifluoromethylcoumarin (GPR-AFC) and measurement of the fluorescence at 400/505 nm after a 60 minute incubation at 25° C. The % inhibition for each data point was calculated from the data and analyzed using the log (inhibitor) vs. response four parameters equation to determine the half-maximal inhibitory concentrations (IC50). The IC50 were converted to equilibrium inhibitory constants (Ki) using the Cheng-Prusoff equation.

Chain of human Factor XIa (P03951 388-625): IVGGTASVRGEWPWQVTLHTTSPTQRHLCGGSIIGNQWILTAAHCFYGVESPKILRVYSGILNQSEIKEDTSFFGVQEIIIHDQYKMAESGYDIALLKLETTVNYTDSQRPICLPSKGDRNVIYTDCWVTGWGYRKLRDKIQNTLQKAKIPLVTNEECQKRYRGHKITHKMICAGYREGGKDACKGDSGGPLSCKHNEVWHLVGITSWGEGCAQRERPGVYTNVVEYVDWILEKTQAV
Chain of human Factor XIa (P03951 19-387 partner): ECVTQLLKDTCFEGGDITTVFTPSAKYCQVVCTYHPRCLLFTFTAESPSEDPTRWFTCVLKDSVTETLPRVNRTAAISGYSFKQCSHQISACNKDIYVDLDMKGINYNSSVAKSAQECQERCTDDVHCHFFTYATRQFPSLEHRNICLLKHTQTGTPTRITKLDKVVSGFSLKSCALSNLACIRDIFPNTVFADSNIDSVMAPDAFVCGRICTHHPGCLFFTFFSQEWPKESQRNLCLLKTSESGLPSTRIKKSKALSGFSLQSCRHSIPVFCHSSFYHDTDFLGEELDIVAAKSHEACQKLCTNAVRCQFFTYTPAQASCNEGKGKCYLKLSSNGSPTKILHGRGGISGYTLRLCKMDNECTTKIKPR

For the compound `CC(C1CC1)C(C(=O)Nc1ccc(C(=O)O)cc1)c1ccc(-c2c(OC(F)F)ccc(Cl)c2F)c[n+]1[O-]` (single isomer, unassigned) [Example 57, 2-(1-((4-carboxyphenyl)amino)-3-cyclopropyl-1-oxobutan-2-yl)-5-(3-chloro-6-(difluoromethoxy)-2-fluorophenyl)pyridine 1-oxide], the inhibition at 1 µM is 48% and the pIC50 is less than 6.00.
Turning to `CC1CC1C[C@H](C(=O)Nc1ccc(C(=O)O)cc1)c1ccc(-c2c(C(F)F)ccc(Cl)c2F)c[n+]1[O-]` (single isomer, unassigned) [Example 61], the negative-log IC50 (pIC50) is 7.26.
On the same count and under the same terms, the figure for `O=C(O)c1ccc(NC(=O)C(C[C@H]2CC[C@H](O)CC2)c2ccc(-c3c(C(F)F)ccc(Cl)c3F)c[n+]2[O-])cc1` (single isomer, unassigned) [Example 36, (S)- or (R)-2-(1-((4-carboxyphenyl)amino)-3-((1r,4r)-4-hydroxycyclohexyl)-1-oxopropan-2-yl)-5-(3-chloro-6-(difluoromethyl)-2-fluorophenyl)pyridine 1-oxide] is 7.59; for `C[C@]1(O)CC[C@@H](CC(C(=O)Nc2ccc(C(=O)O)cc2)c2ccc(-c3c(C(F)F)ccc(Cl)c3F)c[n+]2[O-])CC1` (single isomer, unassigned) [Example 44, 2-(1-((4-carboxyphenyl)amino)-3-((1s,4s)-4-hydroxy-4-methylcyclohexyl)-1-oxopropan-2-yl)-5-(3-chloro-6-(difluoromethyl)-2-fluorophenyl)pyridine 1-oxide] it is 6.52; for `O=C(O)c1ccc(NC(=O)C(CC2CC2C(F)(F)F)c2ccc(-c3c(C(F)F)ccc(Cl)c3F)c[n+]2[O-])cc1` (single isomer, unassigned) [Example 86, 2-(1-((4-carboxyphenyl)amino)-1-oxo-3-(2-(trifluoromethyl)cyclopropyl)propan-2-yl)-5-(3-chloro-6-(difluoromethyl)-2-fluorophenyl)pyridine 1-oxide] it is 7.03.
In the case of `O=C(O)c1ccc(NC(=O)C(CC2CC2)c2ccc(-c3cc(Cl)ccc3C(F)(F)F)c[n+]2[O-])cc1` (single isomer, unassigned) [Example 24, (S)- or (R)-2-(1-((4-carboxyphenyl)amino)-3-cyclopropyl-1-oxopropan-2-yl)-5-(5-chloro-2-(trifluoromethyl)phenyl)pyridine 1-oxide], the inhibition at 1 µM was 33% and the pIC50 was less than 6.00.
The corresponding values for `COC(=O)c1ccc(NC(=O)C(CC2CCC2)c2ccc(-c3c(C(F)F)ccc(Cl)c3F)c[n+]2[O-])cc1` (single isomer, unassigned) [Example 20, (S)- or (R)-methyl 4-[(2-{5-[3-chloro-6-(difluoromethyl)-2-fluorophenyl]-1-oxidopyridin-2-yl}-3-cyclobutylpropanoyl)amino]benzoate] are 13% and less than 6.00.
In the case of `O=C(O)c1ccc(NC(=O)[C@@H](CC2CC2)c2ccc(-c3c(C(F)F)ccc(Cl)c3F)c[n+]2[O-])cc1` (mixture of isomers) [Example 22, (S)- and (R)-2-(1-((4-carboxyphenyl)amino)-3-cyclopropyl-1-oxopropan-2-yl)-5-(3-chloro-6-(difluoromethyl)-2-fluorophenyl)pyridine 1-oxide], the pIC50 was 6.62.
Consider `O=C(O)c1ccc(NC(=O)C(CC2CC(F)C2)c2ccc(-c3c(OC(F)F)ccc(Cl)c3F)c[n+]2[O-])cc1` (single isomer, unassigned) [Example 101, 2-(1-((4-carboxyphenyl)amino)-3-(3-fluorocyclobutyl)-1-oxopropan-2-yl)-5-(3-chloro-6-(difluoromethoxy)-2-fluorophenyl)pyridine 1-oxide], for which the inhibition at 1 µM turned out to be 44%.
As for `Cc1cc(C(CC2CC2)C(=O)Nc2ccc(C(=O)O)cc2)[n+]([O-])cc1-c1c(OC(F)F)ccc(Cl)c1F` [Example 66, (S)- and (R)-2-(1-((4-carboxyphenyl)amino)-3-cyclopropyl-1-oxopropan-2-yl)-5-(3-chloro-6-(difluoromethoxy)-2-fluorophenyl)-4-methylpyridine 1-oxide], the inhibition at 1 µM was found to be 34% and the pIC50 was less than 6.00.
As to `O=C(O)c1ccc(NC(=O)[C@H](CC2CC2)c2ccc(-c3c(OC(F)F)ccc(Cl)c3F)c[n+]2[O-])cc1` (single isomer, unassigned) [Example 1], the inhibition at 1 µM turned out to be 47%.
As for `O=C(O)c1ccc(NC(=O)[C@@H](CC2CC2)c2ccc(-c3c(OCC4CC4)ccc(Cl)c3F)c[n+]2[O-])cc1` [Example 12, (S)-4-[(2-{5-[3-chloro-6-(cyclopropylmethoxy)-2-fluorophenyl]-1-oxidopyridin-2-yl}-3-cyclopropylpropanoyl)amino] benzoic acid], the inhibition at 1 µM stood at 35% and the pIC50 is less than 6.00.
Consider `O=C(O)c1ccc(NC(=O)C(CC2CC2)c2ccc(-c3c(C(F)F)ccc(Cl)c3F)c[n+]2[O-])cc1F` (single isomer, unassigned) [Example 117, 2-(1-((4-carboxy-3-fluorophenyl)amino)-3-cyclopropyl-1-oxopropan-2-yl)-5-(3-chloro-6-(difluoromethyl)-2-fluorophenyl)pyridine 1-oxide], for which the pIC50 was 7.23.
Turning to `COc1ccc(Cl)c(F)c1-c1ccc(C(CC2CC2)C(=O)Nc2ccc(C(=O)O)cc2)[n+]([O-])c1` (single isomer, unassigned) [Example 11, (R)- or (S)-4-({2-[5-(3-chloro-2-fluoro-6-methoxyphenyl)-1-oxidopyridin-2-yl]-3-cyclopropylpropanoyl}amino) benzoic acid], the pIC50 was 7.44.
Take `CC(C1CC1)C(C(=O)Nc1ccc(C(=O)O)cc1)c1ccc(-c2c(OC(F)F)ccc(Cl)c2F)c[n+]1[O-]` (single isomer, unassigned) [Example 59, 2-(1-((4-carboxyphenyl)amino)-3-cyclopropyl-1-oxobutan-2-yl)-5-(3-chloro-6-(difluoromethoxy)-2-fluorophenyl)pyridine 1-oxide]: the negative logarithm of the IC50 (pIC50) is 6.54.
Regarding `COC(=O)c1ccc(NC(=O)C(CC2CCC2)c2ccc(-c3c(C(F)F)ccc(Cl)c3F)c[n+]2[O-])cc1` (single isomer, unassigned) [Example 21, (R)- or (S)-methyl 4-[(2-{5-[3-chloro-6-(difluoromethyl)-2-fluorophenyl]-1-oxidopyridin-2-yl}-3-cyclobutylpropanoyl)amino]benzoate], the pIC50 was 7.08.
On the same count and under the same terms, the figure for `O=C(O)c1ccc(NC(=O)C(CC2CCC2)c2ccc(-c3c(OC(F)F)ccc(Cl)c3F)c[n+]2[O-])cc1` (single isomer, unassigned) [Example 14, (S)- or (R)-4-[(2-{5-[3-chloro-6-(difluoromethoxy)-2-fluorophenyl]-1-oxidopyridin-2-yl}-3-cyclobutylpropanoyl)amino] benzoic acid] is 7.33; for `O=C(O)c1ccc(NC(=O)C(CC23CC(C2)C3)c2ccc(-c3c(C(F)F)ccc(Cl)c3F)c[n+]2[O-])cc1F` (single isomer, unassigned) [Example 123, 2-(3-(bicyclo[1.1.1]pentan-1-yl)-1-((4-carboxy-3-fluorophenyl)amino)-1-oxopropan-2-yl)-5-(3-chloro-6-(difluoromethyl)-2-fluorophenyl)pyridine 1-oxide] it is 7.61.
With `CC1CCC1CC(C(=O)Nc1ccc(C(=O)O)cc1)c1ccc(-c2c(OC(F)F)ccc(Cl)c2F)c[n+]1[O-]` (single isomer, unassigned) [Example 104, 2-(1-((4-carboxyphenyl)amino)-3-(2-methylcyclobutyl)-1-oxopropan-2-yl)-5-(3-chloro-6-(difluoromethoxy)-2-fluorophenyl)pyridine 1-oxide], the inhibition at 1 µM came to 37% and the negative logarithm of the IC50 (pIC50) is 6.00.
For `C[C@]1(O)CC[C@H](CC(C(=O)Nc2ccc(C(=O)O)cc2)c2ccc(-c3c(C(F)F)ccc(Cl)c3F)c[n+]2[O-])CC1` (single isomer, unassigned) [Example 46, 2-(1-((4-carboxyphenyl)amino)-3-((1r,4r)-4-hydroxy-4-methylcyclohexyl)-1-oxopropan-2-yl)-5-(3-chloro-6-(difluoromethyl)-2-fluorophenyl)pyridine 1-oxide], the pIC50 was 6.89.
On the same count and under the same terms, then `C[C@]1(O)CC[C@H](CC(C(=O)Nc2ccc(C(=O)O)cc2)c2ccc(-c3c(OC(F)F)ccc(Cl)c3F)c[n+]2[O-])CC1` (single isomer, unassigned) [Example 42, 2-(1-((4-carboxyphenyl)amino)-3-((1r,4r)-4-hydroxy-4-methylcyclohexyl)-1-oxopropan-2-yl)-5-(3-chloro-6-(difluoromethoxy)-2-fluorophenyl)pyridine 1-oxide], with 6.64.
Take `O=C(O)c1ccc(NC(=O)C(CC2CC2C(F)(F)F)c2ccc(-c3c(OC(F)F)ccc(Cl)c3F)c[n+]2[O-])cc1` (single isomer, unassigned) [Example 110, 2-(1-((4-carboxyphenyl)amino)-1-oxo-3-(2-(trifluoromethyl)cyclopropyl)propan-2-yl)-5-(3-chloro-6-(difluoromethoxy)-2-fluorophenyl)pyridine 1-oxide]: the inhibition at 1 µM was 29%.
